Laboratory results reported in article PMC3433420 (PLoS ONE, 2012).
Read-outs that look alike come from different tables or passages of the source. Residues, ends and D or L forms follow the SMILES beside them.

Assays:
[1] = target: T1, SH2 and PTB domains (Homo sapiens, UniProt O14796); experiment: In-house protein microarrays (with or without 5 mM DTT), protein named per line; assay type: binding; details: protein SH2D1B
T1 construct: thioredoxin; made in house; host or cells: BL21(DE3)pLysS E. coli
T1 sequence (O14796 1-132): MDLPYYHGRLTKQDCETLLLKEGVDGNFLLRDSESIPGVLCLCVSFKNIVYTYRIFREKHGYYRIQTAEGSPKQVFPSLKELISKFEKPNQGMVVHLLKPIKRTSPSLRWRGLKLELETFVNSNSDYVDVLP
Outline: (§1)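 KD values come from rhodamine fluorescence of duplicate spots after subtraction of a thioredoxin control. Domains were printed at ~40 µM on aldehyde slides, blocked 1 h at room temperature in pH 7.8 HEPES/KCl buffer with 5 mM DTT and 1% BSA, then peptide-probed.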

[2] = target: T2, SH2 and PTB domains (Homo sapiens, UniProt O75159); experiment: as above; assay type: binding; details: protein SOCS5; PM assay replicate # 39337; array fabrication # 39329
T2 construct: thioredoxin; made in house; host or cells: BL21(DE3)pLysS E. coli
Outline: as §1

[3] = target: T3, SH2 and PTB domains (Homo sapiens, UniProt Q8N5H7); experiment: as above; assay type: binding; details: protein SH2D3C, array fabrication # 39329
T3 construct: thioredoxin; made in house; host or cells: BL21(DE3)pLysS E. coli
Outline: as §1

[4] = target: T4, SH2 and PTB domains (Homo sapiens, UniProt Q63HR2); experiment: as above; assay type: binding; details: protein TENC1, array fabrication # 39329
T4 construct: thioredoxin; made in house; host or cells: BL21(DE3)pLysS E. coli
Outline: as §1

[5] = target: T5, SH2 and PTB domains (Homo sapiens, UniProt O75815); experiment: as above; assay type: binding; details: protein BCAR3; PM assay replicate # 39337; array fabrication # 39329
T5 construct: thioredoxin; made in house; host or cells: BL21(DE3)pLysS E. coli
Outline: as §1

[6] = target: SH2 and PTB domains; details: original PM interactions, ref Jones et al. 2006 / Kaushansky et al. Chem and Biol 2008, cited from earlier work
Excerpt: Supplement pone.0044471.s022.xlsx, sheet "Most recent PM interactions" | column: Kd || Supplement pone.0044471.s022.xlsx, sheet "All original PM interactions" | column: Kd

T4 sequence (Q63HR2 whole entry, the tested form may be a part): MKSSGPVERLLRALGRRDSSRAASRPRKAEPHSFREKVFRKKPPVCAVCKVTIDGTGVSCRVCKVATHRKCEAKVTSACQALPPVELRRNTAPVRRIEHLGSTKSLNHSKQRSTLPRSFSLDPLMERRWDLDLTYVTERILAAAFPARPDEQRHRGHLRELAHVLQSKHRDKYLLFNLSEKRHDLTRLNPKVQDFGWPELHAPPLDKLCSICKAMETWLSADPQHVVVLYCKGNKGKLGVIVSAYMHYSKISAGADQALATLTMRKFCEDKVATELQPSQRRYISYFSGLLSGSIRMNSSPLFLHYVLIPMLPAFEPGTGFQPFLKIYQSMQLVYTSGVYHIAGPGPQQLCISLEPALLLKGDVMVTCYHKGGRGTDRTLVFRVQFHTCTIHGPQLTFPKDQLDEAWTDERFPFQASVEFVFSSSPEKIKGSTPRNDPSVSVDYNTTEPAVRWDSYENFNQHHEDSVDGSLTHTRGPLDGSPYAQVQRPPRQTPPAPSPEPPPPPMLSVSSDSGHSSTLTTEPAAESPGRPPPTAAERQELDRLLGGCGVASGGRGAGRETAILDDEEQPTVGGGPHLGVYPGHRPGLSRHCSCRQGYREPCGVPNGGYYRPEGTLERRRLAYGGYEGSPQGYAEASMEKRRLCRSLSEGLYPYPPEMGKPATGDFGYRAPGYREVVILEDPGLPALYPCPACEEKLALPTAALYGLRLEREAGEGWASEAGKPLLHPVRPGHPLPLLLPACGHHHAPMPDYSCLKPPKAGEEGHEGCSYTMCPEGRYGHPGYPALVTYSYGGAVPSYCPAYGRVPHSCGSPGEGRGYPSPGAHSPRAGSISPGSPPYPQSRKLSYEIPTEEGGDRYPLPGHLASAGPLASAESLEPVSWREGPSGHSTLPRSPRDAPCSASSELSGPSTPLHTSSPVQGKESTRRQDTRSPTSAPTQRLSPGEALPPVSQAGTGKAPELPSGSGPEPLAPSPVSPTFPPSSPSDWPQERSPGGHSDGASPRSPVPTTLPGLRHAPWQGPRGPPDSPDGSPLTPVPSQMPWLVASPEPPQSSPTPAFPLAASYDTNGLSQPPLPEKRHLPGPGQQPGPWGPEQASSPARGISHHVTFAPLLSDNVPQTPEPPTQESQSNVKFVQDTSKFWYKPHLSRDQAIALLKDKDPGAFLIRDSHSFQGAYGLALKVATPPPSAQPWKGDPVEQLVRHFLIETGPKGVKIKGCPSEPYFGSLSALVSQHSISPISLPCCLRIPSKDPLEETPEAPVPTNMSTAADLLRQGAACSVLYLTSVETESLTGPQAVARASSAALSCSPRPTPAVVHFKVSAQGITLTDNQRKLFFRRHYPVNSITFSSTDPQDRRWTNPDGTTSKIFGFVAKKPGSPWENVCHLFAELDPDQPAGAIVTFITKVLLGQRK
T3 sequence (Q8N5H7 whole entry, the tested form may be a part): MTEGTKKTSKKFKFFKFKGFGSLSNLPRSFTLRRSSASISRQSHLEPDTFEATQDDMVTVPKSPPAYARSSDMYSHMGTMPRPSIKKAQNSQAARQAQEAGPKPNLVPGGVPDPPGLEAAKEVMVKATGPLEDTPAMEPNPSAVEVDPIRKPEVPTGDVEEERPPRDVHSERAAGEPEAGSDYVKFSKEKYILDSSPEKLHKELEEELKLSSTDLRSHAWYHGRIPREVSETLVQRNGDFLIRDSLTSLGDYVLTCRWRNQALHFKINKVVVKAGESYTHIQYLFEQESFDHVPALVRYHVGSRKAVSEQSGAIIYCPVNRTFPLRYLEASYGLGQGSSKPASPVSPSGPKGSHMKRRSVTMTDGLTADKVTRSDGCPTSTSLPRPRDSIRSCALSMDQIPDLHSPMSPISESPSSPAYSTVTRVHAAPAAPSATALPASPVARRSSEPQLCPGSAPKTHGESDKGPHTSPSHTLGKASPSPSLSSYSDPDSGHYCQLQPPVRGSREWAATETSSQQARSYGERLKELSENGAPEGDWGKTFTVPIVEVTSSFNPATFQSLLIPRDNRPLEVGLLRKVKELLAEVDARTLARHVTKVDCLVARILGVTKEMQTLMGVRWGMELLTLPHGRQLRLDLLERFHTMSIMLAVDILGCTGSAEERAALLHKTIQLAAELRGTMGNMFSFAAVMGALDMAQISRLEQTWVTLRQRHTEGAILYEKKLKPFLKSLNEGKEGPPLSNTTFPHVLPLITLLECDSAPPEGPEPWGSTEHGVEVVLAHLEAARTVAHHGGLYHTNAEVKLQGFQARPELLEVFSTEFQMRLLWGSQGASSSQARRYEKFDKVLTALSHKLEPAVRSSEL
T5 sequence (O75815 whole entry, the tested form may be a part): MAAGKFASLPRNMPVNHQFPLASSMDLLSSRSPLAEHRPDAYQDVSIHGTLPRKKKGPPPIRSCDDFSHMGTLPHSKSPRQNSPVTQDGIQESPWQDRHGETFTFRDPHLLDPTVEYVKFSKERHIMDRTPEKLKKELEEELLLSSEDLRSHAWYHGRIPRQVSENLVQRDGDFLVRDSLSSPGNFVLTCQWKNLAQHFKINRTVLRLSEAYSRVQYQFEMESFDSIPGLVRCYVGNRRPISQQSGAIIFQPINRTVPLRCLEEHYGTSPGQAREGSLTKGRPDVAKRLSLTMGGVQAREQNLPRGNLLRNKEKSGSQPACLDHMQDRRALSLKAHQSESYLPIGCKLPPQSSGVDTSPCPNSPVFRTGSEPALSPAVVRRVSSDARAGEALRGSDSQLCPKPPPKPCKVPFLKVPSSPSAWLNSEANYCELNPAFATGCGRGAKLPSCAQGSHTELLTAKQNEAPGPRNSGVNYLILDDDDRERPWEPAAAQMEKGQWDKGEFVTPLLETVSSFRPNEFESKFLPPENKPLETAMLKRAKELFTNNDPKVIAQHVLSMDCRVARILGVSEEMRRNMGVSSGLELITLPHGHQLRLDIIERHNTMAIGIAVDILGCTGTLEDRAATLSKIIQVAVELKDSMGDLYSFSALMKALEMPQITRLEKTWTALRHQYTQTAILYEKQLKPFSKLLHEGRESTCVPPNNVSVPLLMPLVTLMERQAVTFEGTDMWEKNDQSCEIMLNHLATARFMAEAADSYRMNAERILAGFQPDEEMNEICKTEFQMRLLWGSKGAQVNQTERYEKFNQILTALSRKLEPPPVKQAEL
T2 sequence (O75159 whole entry, the tested form may be a part): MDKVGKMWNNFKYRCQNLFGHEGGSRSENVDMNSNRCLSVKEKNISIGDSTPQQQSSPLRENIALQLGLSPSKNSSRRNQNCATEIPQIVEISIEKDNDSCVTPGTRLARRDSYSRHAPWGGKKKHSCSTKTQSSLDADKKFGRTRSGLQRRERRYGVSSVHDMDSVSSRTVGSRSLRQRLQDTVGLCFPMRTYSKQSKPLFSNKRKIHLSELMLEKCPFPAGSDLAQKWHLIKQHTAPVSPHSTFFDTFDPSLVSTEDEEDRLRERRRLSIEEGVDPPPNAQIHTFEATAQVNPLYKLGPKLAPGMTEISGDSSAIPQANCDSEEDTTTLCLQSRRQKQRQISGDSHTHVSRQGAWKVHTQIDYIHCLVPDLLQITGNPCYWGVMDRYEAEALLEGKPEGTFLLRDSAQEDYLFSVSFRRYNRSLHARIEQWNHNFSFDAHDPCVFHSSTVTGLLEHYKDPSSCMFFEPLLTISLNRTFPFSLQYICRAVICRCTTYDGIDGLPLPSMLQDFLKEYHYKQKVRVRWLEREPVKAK

Compound: CC(C)C[C@H](NC(=O)[C@@H]1CCCN1)C(=O)N[C@@H](CCC(N)=O)C(=O)N[C@@H](CCCNC(=N)N)C(=O)N[C@@H](Cc1ccc(OP(=O)(O)O)cc1)C(=O)N[C@@H](CO)C(=O)N[C@@H](CCC(=O)O)C(=O)N[C@@H](CC(=O)O)C(=O)N1CCC[C@H]1C(=O)N[C@H](C(=O)N[C@H](C(=O)N1CCC[C@H]1C(=O)N[C@@H](CC(=O)O)C(=O)O)C(C)C)[C@@H](C)O [ErbB2 pY1112] (HELM PEPTIDE1{P.L.Q.R.[O=C([C@H](Cc1ccc(OP(=O)(O)O)cc1)N[*:1])[*:2]].S.E.D.P.T.V.P.D}$$$$V2.0)
- Kd ([1]; PM assay replicate # 39331, array fabrication # 39329): 2030 nM
- Kd ([1]; PM assay replicate # 39336, array fabrication # 39329): 5390 nM
- Kd ([1]; PM assay replicate # 39603, array fabrication # 39392): 490 nM

Compound: CC(C)C[C@H](NC(=O)[C@@H]1CCCN1C(=O)[C@H](C)NC(=O)[C@@H](NC(=O)[C@H](Cc1ccc(OP(=O)(O)O)cc1)NC(=O)CNC(=O)[C@H](CC(=O)O)NC(=O)[C@@H](NC(=O)[C@@H](N)CCC(=O)O)[C@@H](C)O)C(C)C)C(=O)N[C@H](C(=O)N[C@@H](CS)C(=O)N[C@@H](CO)C(=O)N[C@@H](CC(=O)O)C(=O)O)[C@@H](C)O [ErbB2 pY1127]
- Kd [2]: 700 nM
- Kd ([3]; PM assay replicate # 39336): 1520 nM
- Kd ([3]; PM assay replicate # 39337): 5510 nM
- Kd ([4]; PM assay replicate # 39336): 32590 nM
- Kd ([4]; PM assay replicate # 39337): 3940 nM
- Kd [5]: 730 nM

Compound: DNLYpYWDQDPPEd [ErbB2 pY1222, N-terminally rhodamine-labeled 13-mer phosphopeptide]
- Kd ([6]; Protein ABL1): 1840 nM
- Kd ([6]; Protein ABL2): 190 nM
- Kd ([6]; Protein BCAR3): 2000 nM
- Kd ([6]; Protein BLK): 2000 nM
- Kd ([6]; Protein BMX): 2000 nM
- Kd ([6]; Protein BTK): 2000 nM
- Kd ([6]; Protein CRKL): 1460 nM
- Kd ([6]; Protein DAPP1): 2000 nM
- Kd ([6]; Protein FGR): 2000 nM
- Kd ([6]; Protein GRB10): 490 nM
- Kd ([6]; Protein HSH2D): 2000 nM
- Kd ([6]; Protein ITK): 2000 nM
- Kd ([6]; Protein NCK1): 2000 nM
- Kd ([6]; Protein PIK3R1-C): 2000 nM
- Kd ([6]; Protein PIK3R1-NC): 1840 nM
- Kd ([6]; Protein PIK3R2-NC): 2000 nM
- Kd ([6]; Protein PIK3R3-C): 2000 nM
- Kd ([6]; Protein PIK3R3-NC): 780 nM
- Kd ([6]; Protein PLCG1-N): 2000 nM
- Kd ([6]; Protein PLCG1-NC): 1790 nM
- Kd ([6]; Protein PLCG2-N): 2000 nM
- Kd ([6]; Protein PLCG2-NC): 2000 nM
- Kd ([6]; Protein PTPN6-C): 2000 nM
- Kd ([6]; Protein PTPN11-N): 2000 nM
- Kd ([6]; Protein RASA1-C): 2000 nM
- Kd ([6]; Protein RASA1-N): 500 nM
- Kd ([6]; Protein RASA1-NC): 2000 nM
- Kd ([6]; Protein SH2B2): 1470 nM
- Kd ([6]; Protein SH2B3): 2000 nM
- Kd ([6]; Protein SH2D1A): 2000 nM
- Kd ([6]; Protein SH2D1B): 2000 nM
- Kd ([6]; Protein SH2D3A): 1600 nM
- Kd ([6]; Protein SH2D3C): 710 nM
- Kd ([6]; Protein SHC1-PTB): 90 nM
- Kd ([6]; Protein SHC1): 2000 nM
- Kd ([6]; Protein SHC2-PTB): 460 nM
- Kd ([6]; Protein SHC3): 1710 nM
- Kd ([6]; Protein SHC4): 2000 nM
- Kd ([6]; Protein SHD): 2000 nM
- Kd ([6]; Protein SHF): 2000 nM
- Kd ([6]; Protein SLA2): 2000 nM
- Kd ([6]; Protein SLA): 2000 nM
- Kd ([6]; Protein SOCS1): 1920 nM
- Kd ([6]; Protein SOCS2): 2000 nM
- Kd ([6]; Protein SOCS3): 2000 nM
- Kd ([6]; Protein SOCS5): 2000 nM
- Kd ([6]; Protein SOCS6): 2000 nM
- Kd ([6]; Protein SRC): 2000 nM
- Kd ([6]; Protein SUPT6H): 2000 nM
- Kd ([6]; Protein SYK-C): 1970 nM
- Kd ([6]; Protein SYK-N): 200 nM
- Kd ([6]; Protein SYK-NC): 460 nM
- Kd ([6]; Protein TEC): 1610 nM
- Kd ([6]; Protein TENC1): 840 nM
- Kd ([6]; Protein TNS1): 2000 nM
- Kd ([6]; Protein TNS3): 1290 nM
- Kd ([6]; Protein TXK): 2000 nM
- Kd ([6]; Protein VAV1): 2000 nM
- Kd ([6]; Protein VAV2): 2000 nM
- Kd ([6]; Protein VAV3): 2000 nM
- Kd ([6]; Protein YES1): 2000 nM
